One experiment has as its system PTZ-treated mice. The experiment in a line: Acute PTZ method (pentylenetetrazol-induced seizure assay). The following applies: Mus musculus, lowest dose with significant effect on latency to tonic seizures, PO, read-out: Anticonvulsive Effect Dose (minimal effective anticonvulsant dose). The format is in vivo. The procedure: The anticonvulsant effect of test compounds were assessed in a pentylenetetazol-induced seizure assay in mice similar to methods described in Giardina & Gasior (Curr Protoc Pharmacol. 2009). Male CD-1 mice were housed in groups of five under controlled conditions (temperature of 22±2° C. and 12:12 light-dark cycle, lights on at 8:00 am) and water and food were available ad libitum. The mice were housed for 1 week prior to behavioral testing, at which time they weighed 25-35 g. Pentylenetetrazol (PTZ, Sigma) was dissolved in sterile 0.9% saline at a concentration of 12 mg/mL concentration for subcutaneous administration. Test compounds were formulated and administered via oral gavage or intraperitoneal injection at a predetermined time-point (typically 30 or 60 minutes) prior to PTZ injection. All solutions were made fresh and given in a volume corresponding to 10 ml/kg body weight.
Mice were acclimated to the test room for at least 30 min before compound administration. Mice were randomized into at least four test groups (vehicle and at least three doses of the test compound) with 10 mice per group. […] Following the drug pretreatment time the mice were injected s.c. with PTZ (120 mg/kg). Immediately following the PTZ injection, mice were individually placed into observation chambers (25×15×15 cm) and a three-channel timer was started. Each mouse was continuously observed for 30 min and the following behaviors were recorded by observers blinded to the treatments: 1) latency to clonic convulsions that persist for 3 sec and followed by an absence of righting reflex 2) latency to tonic convulsions, characterized by the rigid extension of all four limbs that exceeded a 90 degree angle with the body 3) latency to death 4) number of clonic and tonic convulsions. Data are presented as mean±S.E.M and one-way ‘nalysis of vari’nce with Dunnett's or Bonferroni's post-hoc test was used to detect significant differences in latency and number between the vehicle and dose group, p values<0.05 were regarded as statistically significant.

The target of experiment [1] is [35S]-TBPS binding, rat brain cortical membranes. Put plainly: Steroid inhibition of TBPS binding ([35S]-TBPS radioligand displacement). The following applies: 3 nM [35S]-TBPS, 5 μM GABA. The method, then: TBPS binding assays using rat brain cortical membranes in the presence of 5 μM GABA has been described (Gee et al, J. Pharmacol. Exp. Then 1987, 241, 346-353; Hawkinson et al, Mol. Pharmacol. 1994, 46, 977-985; Lewin, A. H et al., Mol. Pharmacol. 1989, 35, 189-194).
Briefly, cortices are rapidly removed following decapitation of carbon dioxide-anesthetized Sprague-Dawley rats (200-250 g). The cortices are homogenized in 10 volumes of […] using a glass/teflon homogenizer and centrifuged at 1500×g for 10 min at 4° C. The resultant supernatants are centrifuged at 10,000×g for 20 min at 4° C. to obtain the P2 pellets. The P2 pellets are resuspended in 200 mM NaCl/50 mM Na—K phosphate pH 7.4 buffer and centrifuged at 10,000×g for 10 min at 4° C. This washing procedure is repeated twice and the pellets are resuspended in 10 volumes of buffer. Aliquots (100 μL) of the membrane suspensions are incubated with 3 nM [^35S]-TBPS and 5 μL aliquots of test drug dissolved in dimethyl sulfoxide (DMSO) (final 0.5%) in the presence of 5 μM GABA. The incubation is brought to a final volume of 1.0 mL with buffer. […] Following a 90 min incubation at room temp, the assays are terminated by filtration through glass fiber filters (Schleicher and Schuell No. 32) using a cell harvester (Braudel) and rinsed three times with ice-cold buffer. Filter bound radioactivity is measured by liquid scintillation spectrometry. Non-linear curve fitting of the overall data for each drug averaged for each concentration is done using Prism (GraphPad).
Various compounds are or can be screened to determine their potential as modulators of [^35S]-TBPS binding in vitro. These assays are or can be performed in accordance with the above discussed procedures.

Another experiment deals with α1β2γ2 GABAA receptors (Homo sapiens (Human), UniProt P14867+P47870). The experiment in a line: Patch clamp electrophysiology (QPatch) of recombinant α1β2γ2 GABAA receptors in LTK cells. It is filed as cell-based. As to conditions: 10 μM test article, GABA EC20 = 2 μM; for Emax at 10 µM: read-out: GABA (α1β2γ2) Qpatch in Ltk, % efficacy at 10 μM. The procedure: (§1) Cellular electrophysiology is used to measure the pharmacological properties of our GABAA receptor modulators in heterologous cell systems. Each compound is tested for its ability to affect GABA mediated currents at a suhmaximal agonist dose (GABA EC20=2 μM). LTK cells are stably transfected with the α1β2γ2 subunits of the GABA receptor and CHO cells are transiently transfected with the α4β3δ subunits via the Lipofecatamine method. Cells were passaged at a confluence of about 50-80% and then seeded onto 35 mm sterile culture dishes containing 2 ml culture complete medium without antibiotics or antimycotics. Confluent clusters of cells are electrically coupled (Pritchett et al., Science, 1988, 242, 1306-1308). Because responses in distant cells are not adequately voltage clamped and because of uncertainties about the extent of coupling (Verdoom et al., Neuron 1990, 4, 919-928), cells were cultivated at a density that enables the recording of single cells (without visible connections to other cells).
(§2) Whole cell currents were measured with HEKA EPC-10 amplifiers using PatchMaster software or by using the high throughput QPatch platform (Sophion). Bath solution for all experiments contained (in mM): NaCl 137 mM, KCl 4 mM, CaCl2 1.8 mM, MgCl2 1 mM, HEPES 10 mM, D-Glucose 10 mM, pH (NaOH) 7.4. In some cases 0.005% cremophor was also added. Intracellular (pipette) solution contained: KCl 130 mM, MgCl2 1 mM, Mg-ATP 5 mM, HEPES 10 mM, EGTA 5 mM, pH 7.2. During experiments, cells and solutions were maintained at room temperature (19° C.-30° C.). For manual patch clamp recordings, cell culture dishes were placed on the dish holder of the microscope and continuously perfused (1 ml/min) with bath solution. After formation of a Gigaohm seal between the patch electrodes and the cell (-ipette resistance range: 2.5 MΩ-6.0 MΩ; seal resistance range:>1 GΩ) the cell membrane across the pipette tip was ruptured to assure electrical access to the cell interior (whole-cell patch-configuration). For experiments using the QPatch system, cells were transferred as suspension to the QPatch system in the bath solution and automated whole cell recordings were performed.
(§3) Cells were voltage clamped at a holding potential of −80 mV. For the analysis of test articles, GABA receptors were stimulated by 2 μM GABA after sequential pre-incubation of increasing concentrations of the test article. Pre-incubation duration was 30 s and the duration of the GABA stimulus was 2s. Test articles were dissolved in DMSO to form stock solutions (10 mM). Test articles were diluted to 0.01, 0.1, 1, and 10 μM in bath solution. All concentrations of test articles were tested on each cell. The relative percentage potentiation was defined as the peak amplitude in response to GABA EC20 in the presence of the test article divided by the peak amplitude in response to GABA EC20 alone, multiplied by 100. For Table 2. GABAA receptors α1β2γ2 and α4β3δ% efficacy: “A” 10-100, “B”>100-500, “C”>500; D indicates the data is not available or has not been determined.

In another experiment the target is α4β3δ GABAA receptors (Homo sapiens (Human), UniProt P28472+P48169). The experiment in a line: Patch clamp electrophysiology (manual patch) of recombinant α4β3δ GABAA receptors in CHO cells. It is filed as cell-based. The following applies: 10 μM test article, GABA EC20 = 2 μM, read-out: GABA (α4β3δ) Manual patch in CHO, % efficacy at 10 μM. The method, then: as §1, §2, §3

Each structure is given as a SMILES string.

As a reminder, the minimal effective dose is the lowest level tested that produced the effect sought. Turning to `C[C@@]1(O)CC[C@@]2(C)[C@H](CC[C@@H]3[C@@H]2CC[C@]2(C)[C@@H](C(=O)Cn4ccc(C(F)(F)F)n4)CC[C@@H]32)C1` [Compound 19], in the experiment on PTZ-treated mice, the minimal effective dose is not above 1 mg/kg.

In general, IC50 refers to the concentration that inhibits the measured activity by half. A low value points to higher potency. Compound `C[C@@]1(O)CC[C@@]2(C)[C@@H](CC[C@@H]3[C@@H]2CC[C@]2(C)[C@@H](C(=O)Cn4nc5ccc(F)c(F)c5n4)CC[C@@H]32)C1` [Compound 108, 2-(4,5-difluoro-2H-benzo[d][1,2,3]triazol-2-yl)-1-((3R,5S,8R,9S,10S,13S,14S,17S)-3-hydroxy-3,10,13-trimethylhexadecahydro-1H-cyclopenta[a]phenanthren-17-yl)ethanone] returned a 50% inhibitory concentration (IC50) in experiment [1] of 10 to 50 nM. Besides, the Emax at 10 µM at α1β2γ2 GABAA receptors is 100 to 500%.

Consider `COC[C@@]1(O)CC[C@@]2(C)[C@@H](CC[C@@H]3[C@@H]2CC[C@]2(C)[C@@H](C(=O)Cn4cc(C#N)cn4)CC[C@@H]32)C1` [Compound 142], for which the Emax at 10 µM on α1β2γ2 GABAA receptors and at α4β3δ GABAA receptors was more than 500% throughout.

Compound `C[C@@]1(O)CC[C@@]2(C)[C@@H](CC[C@@H]3[C@@H]2CC[C@]2(C)[C@@H](C(=O)Cn4cnc(C#N)c4)CC[C@@H]32)C1` [Compound 138] registered an IC50 in experiment [1] of 100 to 500 nM. In addition, the “GABA (α1β2γ2) Qpatch in Ltk, % efficacy at 10 μM” value at α1β2γ2 GABAA receptors is given as “C (>500)”.

As to `C[C@@]1(O)CC[C@@]2(C)[C@H](CC[C@@H]3[C@@H]2CC[C@]2(C)[C@@H](C(=O)Cn4cc(Cl)cn4)CC[C@@H]32)C1` [Compound 133], the Emax at 10 µM is 100 to 500% at α1β2γ2 GABAA receptors and more than 500% on α4β3δ GABAA receptors.

On to `C[C@@]1(O)CC[C@@]2(C)[C@H](CC[C@@H]3[C@@H]2CC[C@]2(C)[C@@H](C(=O)Cn4nc5cc(F)cc(F)c5n4)CC[C@@H]32)C1` [Compound 28], for which, in the experiment with PTZ-treated mice, the minimal effective dose is not above 1 mg/kg.

`C[C@@]1(O)CC[C@@]2(C)[C@@H](CC[C@@H]3[C@@H]2CC[C@]2(C)[C@@H](C(=O)Cn4ncnn4)CC[C@@H]32)C1` [Compound 118]: the Emax at 10 µM at α1β2γ2 GABAA receptors is 100 to 500%; on α4β3δ GABAA receptors it was more than 500%.

`C[C@@]1(O)CC[C@@]2(C)[C@@H](CC[C@@H]3[C@@H]2CC[C@]2(C)[C@@H](C(=O)Cn4nc5cc(F)cc(F)c5n4)CC[C@@H]32)C1` [Compound 234]: the Emax at 10 µM on α4β3δ GABAA receptors was in the range of 100 to 500%.

In experiment [1], `CC(=O)Nc1cnn(CC(=O)[C@H]2CC[C@H]3[C@@H]4CC[C@H]5C[C@](C)(O)CC[C@]5(C)[C@H]4CC[C@]23C)c1` [Compound 153, N-(1-(2-((3R,5S,8R,9S,10S,13S,14S,17S)-3-hydroxy-3,10,13-trimethylhexadecahydro-1H-cyclopenta[a]phenanthren-17-yl)-2-oxoethyl)-1H-pyrazol-4-yl)acetamide] registered a 50% inhibitory concentration (IC50) of 100 to 500 nM. On α1β2γ2 GABAA receptors, the Emax at 10 µM lay within 100 to 500%.

Regarding `C[C@@]1(O)CC[C@@]2(C)[C@H](CC[C@@H]3[C@@H]2CC[C@]2(C)[C@@H](C(=O)Cn4cc(C(F)(F)F)cn4)CC[C@@H]32)C1` [Compound 134], the Emax at 10 µM at α1β2γ2 GABAA receptors and at α4β3δ GABAA receptors was more than 500% throughout.

For `Cc1nnnn1CC(=O)[C@H]1CC[C@H]2[C@@H]3CC[C@@H]4C[C@](C)(O)CC[C@]4(C)[C@H]3CC[C@]12C` [Compound 31], in the experiment with PTZ-treated mice, the minimal effective dose was not below 5 mg/kg.

`C[C@@]1(O)CC[C@@]2(C)[C@@H](CC[C@@H]3[C@@H]2CC[C@]2(C)[C@@H](C(=O)Cn4cc(N)cn4)CC[C@@H]32)C1` [Compound 152, 2-(4-amino-1H-pyrazol-1-yl)-1-((3R,5S,8R,9S,10S,13S,14S,17S)-3-hydroxy-3,10,13-trimethylhexadecahydro-1H-cyclopenta[a]phenanthren-17-yl)ethanone]: the concentration for half-maximal inhibition (IC50) in experiment [1] is 100 to 500 nM. The Emax at 10 µM at α1β2γ2 GABAA receptors was 100 to 500%.

`C[C@@]1(O)CC[C@@]2(C)[C@@H](CC[C@@H]3[C@@H]2CC[C@]2(C)[C@@H](C(=O)Cn4nnc5ccc(Cl)c(F)c54)CC[C@@H]32)C1` [Compound 113] came in with an IC50 in experiment [1] of 10 to 50 nM. Besides, on α1β2γ2 GABAA receptors, the “GABA (α1β2γ2) Qpatch in Ltk, % efficacy at 10 μM” value is on record as “B (>100-500)”.

For `C[C@@]1(O)CC[C@@]2(C)[C@@H](CC[C@@H]3[C@@H]2CC[C@]2(C)[C@@H](C(=O)Cn4ccc(C#N)n4)CC[C@@H]32)C1` [Compound 121], the Emax at 10 µM at α1β2γ2 GABAA receptors and at α4β3δ GABAA receptors was more than 500% each time.

Take `C[C@@]1(O)CC[C@@]2(C)[C@@H](CC[C@@H]3[C@@H]2CC[C@]2(C)[C@@H](C(=O)Cn4nnc5cc(F)c(F)cc54)CC[C@@H]32)C1` [Compound 124]: the Emax at 10 µM on α1β2γ2 GABAA receptors is 100 to 500%; at α4β3δ GABAA receptors it was more than 500%.

As for `Cc1nnn(CC(=O)[C@@H]2CC[C@H]3[C@@H]4CC[C@@H]5C[C@](C)(O)CC[C@]5(C)[C@H]4CC[C@]23C)n1` [Compound 32], the minimal effective dose in the experiment with PTZ-treated mice was not above 1 mg/kg.

`CO[C@H]1C[C@@]2(C)[C@@H](CC[C@@H]3[C@@H]2CC[C@]2(C)[C@@H](C(=O)Cn4nccn4)CC[C@@H]32)C[C@@H]1O` [Compound 2]: the Emax at 10 µM at α1β2γ2 GABAA receptors and at α4β3δ GABAA receptors was 100 to 500% in each case.

Take `C[C@@]1(O)CC[C@@]2(C)[C@H](CC[C@@H]3[C@@H]2CC[C@]2(C)[C@@H](C(=O)Cn4ccnc4C#N)CC[C@@H]32)C1` [Compound 143]: the Emax at 10 µM on α1β2γ2 GABAA receptors and at α4β3δ GABAA receptors was more than 500% each time.
